Source: ChEMBL document CHEMBL4507310, “Data for DCP probe A-1211212” (2021)

Tests used:
[1] = tested on: Mast/stem cell growth factor receptor Kit (Homo sapiens), P10721 [L576P]; details: Compound concentration 1000.0 nM
[2] = biological target: Fibroblast growth factor receptor 4 (Homo sapiens) (UniProt P22455); details: Compound concentration 1000.0 nM
[3] = biological target: Cyclin-dependent kinase-like 1 (Homo sapiens) (UniProt Q00532); details: Compound concentration 1000.0 nM
[4] = biological target: TGF-beta receptor type-1 (Homo sapiens) (UniProt P36897); details: Compound concentration 1000.0 nM
[5] = biological target: Mitogen-activated protein kinase kinase kinase 14 (Homo sapiens) (UniProt Q99558); details: Compound concentration 1000.0 nM
Mitogen-activated protein kinase kinase kinase 14 (Homo sapiens), sequence (Q99558 whole entry, looked up): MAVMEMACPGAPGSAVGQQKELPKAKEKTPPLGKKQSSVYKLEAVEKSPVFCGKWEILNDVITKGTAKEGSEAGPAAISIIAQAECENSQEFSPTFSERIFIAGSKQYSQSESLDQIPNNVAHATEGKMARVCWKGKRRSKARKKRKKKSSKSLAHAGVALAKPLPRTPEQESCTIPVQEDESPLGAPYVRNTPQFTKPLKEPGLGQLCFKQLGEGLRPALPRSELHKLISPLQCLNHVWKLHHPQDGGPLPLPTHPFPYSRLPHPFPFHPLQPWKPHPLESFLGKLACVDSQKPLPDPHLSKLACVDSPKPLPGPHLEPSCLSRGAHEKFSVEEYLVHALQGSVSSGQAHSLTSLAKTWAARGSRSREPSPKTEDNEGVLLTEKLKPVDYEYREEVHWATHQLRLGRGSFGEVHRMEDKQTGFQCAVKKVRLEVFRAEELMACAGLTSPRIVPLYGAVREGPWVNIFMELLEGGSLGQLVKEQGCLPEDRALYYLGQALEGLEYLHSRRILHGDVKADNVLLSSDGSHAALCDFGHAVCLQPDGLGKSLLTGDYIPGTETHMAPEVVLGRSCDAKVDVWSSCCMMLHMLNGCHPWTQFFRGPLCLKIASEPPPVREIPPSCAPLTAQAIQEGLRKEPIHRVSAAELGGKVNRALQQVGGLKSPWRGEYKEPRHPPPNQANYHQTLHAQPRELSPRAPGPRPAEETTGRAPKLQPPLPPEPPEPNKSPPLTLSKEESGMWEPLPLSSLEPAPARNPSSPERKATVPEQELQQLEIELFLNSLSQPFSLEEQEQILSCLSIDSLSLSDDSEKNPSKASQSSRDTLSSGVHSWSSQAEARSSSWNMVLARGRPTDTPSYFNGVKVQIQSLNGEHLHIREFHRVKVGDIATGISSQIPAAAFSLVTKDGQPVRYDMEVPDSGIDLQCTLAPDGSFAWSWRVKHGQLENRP

[6] = biological target: Tyrosine-protein kinase receptor TYRO3 (Homo sapiens) (UniProt Q06418); details: Compound concentration 1000.0 nM
[7] = biological target: Proto-oncogene tyrosine-protein kinase Src (Homo sapiens) (UniProt P12931); details: Compound concentration 1000.0 nM
[8] = biological target: Angiopoietin-1 receptor (Homo sapiens) (UniProt Q02763); details: Compound concentration 1000.0 nM
[9] = biological target: cGMP-dependent protein kinase 2 (Homo sapiens) (UniProt Q13237); details: Compound concentration 1000.0 nM
[10] = biological target: 5-hydroxytryptamine receptor 1B (Homo sapiens) (UniProt P28222); assay: 5-HT1B(h) Eurofins-Cerep binding assay; design: ligand concentration 1 nM; details: filed as antagonist, Compound concentration 10.0 uM
5-hydroxytryptamine receptor 1B (Homo sapiens), sequence (P28222 whole entry): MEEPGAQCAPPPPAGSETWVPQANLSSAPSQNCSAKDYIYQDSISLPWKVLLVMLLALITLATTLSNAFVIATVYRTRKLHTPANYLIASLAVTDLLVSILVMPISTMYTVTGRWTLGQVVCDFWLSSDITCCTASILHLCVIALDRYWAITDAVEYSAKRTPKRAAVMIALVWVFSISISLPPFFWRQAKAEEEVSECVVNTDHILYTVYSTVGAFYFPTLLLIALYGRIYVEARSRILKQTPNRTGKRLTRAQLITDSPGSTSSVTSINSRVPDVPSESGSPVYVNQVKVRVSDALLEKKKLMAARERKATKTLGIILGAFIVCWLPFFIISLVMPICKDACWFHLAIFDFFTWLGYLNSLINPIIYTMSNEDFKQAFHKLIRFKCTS

[11] = biological target: Receptor-type tyrosine-protein kinase FLT3 (Homo sapiens) (UniProt P36888); details: Compound concentration 1000.0 nM
[12] = biological target: Serine/threonine-protein kinase PAK 5 (Homo sapiens) (UniProt Q9P286); details: Compound concentration 1000.0 nM
[13] = biological target: Serine/threonine-protein kinase D2 (Homo sapiens) (UniProt Q9BZL6); details: Compound concentration 1000.0 nM
[14] = biological target: Non-receptor tyrosine-protein kinase TYK2 (Homo sapiens) (UniProt P29597); details: Compound concentration 1000.0 nM
[15] = biological target: STE20/SPS1-related proline-alanine-rich protein kinase (Homo sapiens) (UniProt Q9UEW8); details: Compound concentration 1000.0 nM
[16] = biological target: Dual specificity tyrosine-phosphorylation-regulated kinase 2 (Homo sapiens) (UniProt Q92630); details: Compound concentration 1000.0 nM
[17] = tested on: Phosphatidylinositol 4,5-bisphosphate 3-kinase catalytic subunit alpha isoform (Homo sapiens), P42336 [E545A]; details: Compound concentration 1000.0 nM
[18] = biological target: Serine/threonine-protein kinase PAK 6 (Homo sapiens) (UniProt Q9NQU5); details: Compound concentration 1000.0 nM
[19] = biological target: Ribosomal protein S6 kinase alpha-5 (Homo sapiens) (UniProt O75582); details: Compound concentration 1000.0 nM
[20] = biological target: Prostaglandin G/H synthase 1 (Homo sapiens) (UniProt P23219); assay: COX1(h) Eurofins-Cerep enzyme and uptake assay; details: Compound concentration 10.0 uM
[21] = biological target: Cyclin-dependent kinase 14 (Homo sapiens) (UniProt O94921); details: Compound concentration 1000.0 nM
Cyclin-dependent kinase 14 (Homo sapiens), sequence (O94921 whole entry): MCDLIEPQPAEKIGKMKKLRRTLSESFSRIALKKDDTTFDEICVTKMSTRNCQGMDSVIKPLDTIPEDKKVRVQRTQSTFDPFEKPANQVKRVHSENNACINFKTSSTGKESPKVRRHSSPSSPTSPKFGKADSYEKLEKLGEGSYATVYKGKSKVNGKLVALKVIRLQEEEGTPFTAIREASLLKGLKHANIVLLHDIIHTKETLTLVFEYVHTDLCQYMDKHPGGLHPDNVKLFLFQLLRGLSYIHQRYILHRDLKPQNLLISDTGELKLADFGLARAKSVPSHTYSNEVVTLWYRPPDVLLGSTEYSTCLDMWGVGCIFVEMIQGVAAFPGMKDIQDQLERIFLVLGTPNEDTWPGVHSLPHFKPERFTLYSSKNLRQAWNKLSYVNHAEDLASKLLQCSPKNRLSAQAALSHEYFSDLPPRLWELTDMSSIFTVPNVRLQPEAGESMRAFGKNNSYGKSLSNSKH

[22] = tested on: Epidermal growth factor receptor (Homo sapiens), P00533 [UNDEFINED MUTATION]; details: Compound concentration 1000.0 nM
Epidermal growth factor receptor (Homo sapiens), P00533 [UNDEFINED MUTATION], sequence (P00533 whole entry, looked up, change not shown): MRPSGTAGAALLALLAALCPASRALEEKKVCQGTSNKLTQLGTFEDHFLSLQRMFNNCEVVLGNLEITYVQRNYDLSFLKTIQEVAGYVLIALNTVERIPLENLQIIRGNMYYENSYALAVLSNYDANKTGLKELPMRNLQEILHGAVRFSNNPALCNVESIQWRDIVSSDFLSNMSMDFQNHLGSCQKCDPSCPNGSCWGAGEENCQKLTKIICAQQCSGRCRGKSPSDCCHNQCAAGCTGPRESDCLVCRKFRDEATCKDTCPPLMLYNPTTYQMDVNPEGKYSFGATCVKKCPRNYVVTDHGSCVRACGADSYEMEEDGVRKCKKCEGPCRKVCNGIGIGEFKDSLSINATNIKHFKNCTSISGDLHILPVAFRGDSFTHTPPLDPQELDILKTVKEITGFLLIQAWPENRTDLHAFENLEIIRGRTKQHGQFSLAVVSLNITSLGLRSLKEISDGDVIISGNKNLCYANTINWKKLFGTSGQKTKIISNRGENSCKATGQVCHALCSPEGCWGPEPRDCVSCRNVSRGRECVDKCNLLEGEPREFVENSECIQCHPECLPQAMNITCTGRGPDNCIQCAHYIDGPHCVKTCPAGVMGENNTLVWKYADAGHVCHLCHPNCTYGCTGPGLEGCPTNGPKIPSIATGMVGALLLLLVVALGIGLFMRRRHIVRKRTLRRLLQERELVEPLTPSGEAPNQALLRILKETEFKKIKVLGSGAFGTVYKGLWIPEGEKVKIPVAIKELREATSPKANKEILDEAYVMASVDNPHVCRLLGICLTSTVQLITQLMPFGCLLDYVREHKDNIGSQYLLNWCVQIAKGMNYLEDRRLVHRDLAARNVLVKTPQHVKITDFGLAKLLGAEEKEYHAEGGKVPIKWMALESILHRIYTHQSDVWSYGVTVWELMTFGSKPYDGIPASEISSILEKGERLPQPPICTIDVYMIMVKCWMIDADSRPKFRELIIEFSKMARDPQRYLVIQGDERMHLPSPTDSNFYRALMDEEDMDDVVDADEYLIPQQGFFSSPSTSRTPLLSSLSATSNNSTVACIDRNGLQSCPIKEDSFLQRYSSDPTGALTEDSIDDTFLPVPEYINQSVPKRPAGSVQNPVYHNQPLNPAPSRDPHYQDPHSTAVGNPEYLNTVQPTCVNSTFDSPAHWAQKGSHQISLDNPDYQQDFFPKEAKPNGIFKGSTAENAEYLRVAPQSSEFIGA

[23] = biological target: Serine/threonine-protein kinase RIO3 (Homo sapiens) (UniProt O14730); details: Compound concentration 1000.0 nM
[24] = biological target: Alpha-2C adrenergic receptor (Homo sapiens) (UniProt P18825); details: Compound concentration 10.0 uM
[25] = biological target: G protein-coupled receptor kinase 3 (Homo sapiens) (UniProt P35626); details: Compound concentration 1000.0 nM
[26] = biological target: TRAF2 and NCK-interacting protein kinase (Homo sapiens) (UniProt Q9UKE5); details: Compound concentration 1000.0 nM
[27] = biological target: Mitogen-activated protein kinase kinase kinase 5 (Homo sapiens) (UniProt Q99683); details: Compound concentration 1000.0 nM
[28] = biological target: Inhibitor of nuclear factor kappa-B kinase subunit beta (Homo sapiens) (UniProt O14920); details: Compound concentration 1000.0 nM
[29] = biological target: Angiotensin-converting enzyme (Homo sapiens) (UniProt P12821); assay: ACE (h) Eurofins-Cerep enzyme and uptake assay; details: Compound concentration 10.0 uM
[30] = biological target: 5-hydroxytryptamine receptor 1D (Homo sapiens) (UniProt P28221); details: Compound concentration 10.0 uM
[31] = tested on: Epidermal growth factor receptor (Homo sapiens), P00533 [UNDEFINED MUTATION]; details: Compound concentration 1000.0 nM; remark: listed apart in the source
[32] = biological target: Serine/threonine-protein kinase mTOR (Homo sapiens) (UniProt P42345); details: Compound concentration 1000.0 nM
[33] = biological target: Serine/threonine-protein kinase DCLK1 (Homo sapiens) (UniProt O15075); details: Compound concentration 1000.0 nM
Serine/threonine-protein kinase DCLK1 (Homo sapiens), sequence (O15075 whole entry): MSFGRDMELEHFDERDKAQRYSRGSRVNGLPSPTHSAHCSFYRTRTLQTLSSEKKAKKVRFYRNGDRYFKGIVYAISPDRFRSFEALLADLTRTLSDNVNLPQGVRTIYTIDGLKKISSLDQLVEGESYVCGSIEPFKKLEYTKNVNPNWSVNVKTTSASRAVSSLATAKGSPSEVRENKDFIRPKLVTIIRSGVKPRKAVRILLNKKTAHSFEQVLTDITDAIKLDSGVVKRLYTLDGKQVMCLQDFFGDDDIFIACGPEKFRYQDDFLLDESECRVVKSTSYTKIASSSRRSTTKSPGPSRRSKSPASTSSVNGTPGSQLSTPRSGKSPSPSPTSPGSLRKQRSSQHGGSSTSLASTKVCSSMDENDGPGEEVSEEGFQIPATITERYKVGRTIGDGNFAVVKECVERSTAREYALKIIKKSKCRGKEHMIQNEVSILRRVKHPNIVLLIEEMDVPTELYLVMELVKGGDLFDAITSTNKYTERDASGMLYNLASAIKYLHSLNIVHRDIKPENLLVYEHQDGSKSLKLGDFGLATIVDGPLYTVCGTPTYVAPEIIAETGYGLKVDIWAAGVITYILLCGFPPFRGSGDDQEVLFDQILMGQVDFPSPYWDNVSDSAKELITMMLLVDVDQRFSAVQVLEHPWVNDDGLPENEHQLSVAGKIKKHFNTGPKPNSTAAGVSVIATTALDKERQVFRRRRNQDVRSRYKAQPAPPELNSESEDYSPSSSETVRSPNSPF

[34] = biological target: Mitogen-activated protein kinase kinase kinase kinase 1 (Homo sapiens) (UniProt Q92918); details: Compound concentration 1000.0 nM
[35] = biological target: Aurora kinase A (Homo sapiens) (UniProt O14965); details: Compound concentration 1000.0 nM
Aurora kinase A (Homo sapiens), sequence (O14965 whole entry): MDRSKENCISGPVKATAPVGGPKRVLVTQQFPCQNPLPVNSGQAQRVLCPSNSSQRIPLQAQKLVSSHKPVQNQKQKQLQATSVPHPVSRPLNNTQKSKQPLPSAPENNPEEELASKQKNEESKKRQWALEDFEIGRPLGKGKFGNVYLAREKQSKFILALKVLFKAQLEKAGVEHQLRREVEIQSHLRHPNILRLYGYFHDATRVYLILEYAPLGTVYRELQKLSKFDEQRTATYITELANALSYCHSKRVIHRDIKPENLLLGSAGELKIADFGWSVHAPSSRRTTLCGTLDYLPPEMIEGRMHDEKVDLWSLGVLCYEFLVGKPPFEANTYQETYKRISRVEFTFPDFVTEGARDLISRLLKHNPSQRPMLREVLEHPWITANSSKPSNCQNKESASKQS

[36] = biological target: GABA-A receptor; anion channel (Rattus norvegicus) (UniProt O09028+P15431+P18506+P18508+P19969+P20236+P23574+P23576+P28471+P28473+P30191+P62813+P63079+P63138+Q91ZM7+Q9ES14); details: Compound concentration 10.0 uM
Rattus norvegicus = organism: Rattus norvegicus; assay: SKCa channel Eurofins-Cerep binding assay; design: ligand concentration 0.007 nM; details: filed as antagonist, Compound concentration 10.0 uM
[37] = biological target: D(2) dopamine receptor (Homo sapiens) (UniProt P14416); assay: D2S (h) Eurofins-Cerep binding assay; design: ligand concentration 0.3 nM; details: filed as antagonist, Compound concentration 10.0 uM
[38] = biological target: Wee1-like protein kinase 2 (Homo sapiens) (UniProt P0C1S8); details: Compound concentration 1000.0 nM
[39] = biological target: Serine/threonine-protein kinase MARK1 (Homo sapiens) (UniProt Q9P0L2); details: Compound concentration 1000.0 nM
[40] = biological target: Vasoactive intestinal polypeptide receptor 1 (Homo sapiens) (UniProt P32241); assay: VPAC1 (VIP1) (h) Eurofins-Cerep binding assay; design: ligand concentration 0.04 nM; details: filed as agonist, Compound concentration 10.0 uM
Na+ channel (site 2) = Na+ channel (site 2) (Rattus norvegicus, UniProt F1LQQ7+O08562+O88420+O88457+P04774+P04775+P08104+P15389+P15390+Q62968); assay: Na+ channel (site 2) Eurofins-Cerep binding assay; format: protein assay; design: incubation time 60 min, incubation temperature 37°C, ligand concentration 10 nM; details: rat cerebral cortex, probe [3H]batrachotoxin (10 nM), compound concentration 10 uM, read-out: % Inhibition of Control Specific Binding (Mean n=2)

Fibroblast growth factor receptor 4 (Homo sapiens), sequence (P22455 22-802 limits assumed): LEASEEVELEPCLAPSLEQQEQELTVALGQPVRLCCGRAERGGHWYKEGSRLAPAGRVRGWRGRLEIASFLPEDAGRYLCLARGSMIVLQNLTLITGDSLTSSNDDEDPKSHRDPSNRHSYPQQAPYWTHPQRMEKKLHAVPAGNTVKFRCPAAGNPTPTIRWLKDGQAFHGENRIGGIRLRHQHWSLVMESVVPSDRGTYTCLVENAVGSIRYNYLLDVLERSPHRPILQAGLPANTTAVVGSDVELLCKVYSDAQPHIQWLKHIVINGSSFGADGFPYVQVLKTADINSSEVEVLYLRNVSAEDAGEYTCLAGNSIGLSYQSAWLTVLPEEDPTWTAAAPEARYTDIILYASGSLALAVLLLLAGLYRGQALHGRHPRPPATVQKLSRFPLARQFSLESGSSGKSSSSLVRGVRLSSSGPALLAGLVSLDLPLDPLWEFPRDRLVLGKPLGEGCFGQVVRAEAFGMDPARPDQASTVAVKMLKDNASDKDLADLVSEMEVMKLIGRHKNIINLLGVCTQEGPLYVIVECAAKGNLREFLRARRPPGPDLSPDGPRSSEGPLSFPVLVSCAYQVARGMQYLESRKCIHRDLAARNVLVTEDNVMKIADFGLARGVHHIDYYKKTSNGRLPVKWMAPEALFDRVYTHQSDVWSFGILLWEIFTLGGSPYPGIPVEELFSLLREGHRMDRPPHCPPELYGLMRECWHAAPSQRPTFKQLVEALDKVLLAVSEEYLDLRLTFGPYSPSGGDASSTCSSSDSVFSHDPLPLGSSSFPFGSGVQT

O=C(NS(=O)(=O)c1ccc(NCC2CCOCC2)c([N+](=O)[O-])c1)c1ccc(N2CCN(Cc3ccc(C(F)(F)F)cc3-c3ccc(Cl)cc3)CC2)cc1Oc1cnc2[nH]ccc2c1 [A-1210227] was tested, and the residual activity [1] was 100%, the residual activity [2] was 96% and the residual activity [3] was 100%. It also gave a residual activity [4] of 93%, a residual activity [5] of 65% and a residual activity [6] of 92%. The residual activity [7] was 76%, the residual activity [8] was 80% and the residual activity [9] was 100%. For the same molecule, the % Inhibition of Control Specific Binding (Mean n=2) [10] was -4.9%, the residual activity [11] was 100% and the residual activity [12] was 95%. The residual activity [13] was 100%, the residual activity [14] was 84% and the residual activity [15] was 89%. For the same molecule, the residual activity [16] was 100%, the residual activity [17] was 86% and the residual activity [18] was 73%. The residual activity [19] was 97%, the % Inhibition of Control Values (Mean n=2) [20] was 3.7% and the residual activity [21] was 100%. For the same molecule, the residual activity [22] was 86%, the residual activity [23] was 98% and the inhibition [24] was 12.7%. It also gave a residual activity [25] of 78%, a residual activity [26] of 100% and a residual activity [27] of 82%. It also gave a residual activity [28] of 74%, a % Inhibition of Control Values (Mean n=2) [29] of -32.2% and an inhibition [30] of -6.27%. It also gave a residual activity [31] of 100%, a residual activity [32] of 100% and a residual activity [33] of 100%. It also gave a residual activity [34] of 98%, a residual activity [35] of 96% and an inhibition [36] of 14.5%. The % Inhibition of Control Specific Binding (Mean n=2) (Rattus norvegicus) was -4.8%, the % Inhibition of Control Specific Binding (Mean n=2) [37] was 15.2% and the residual activity [38] was 100%. The residual activity [39] was 81%, the % Inhibition of Control Specific Binding (Mean n=2) [40] was -57.7% and the inhibition at 60 min, 10 µM (Na+ channel (site 2)) was -8.2%.
With CO[C@H]1CC[C@H](CNc2ccc(S(=O)(=O)NC(=O)c3ccc(N4CCN(CC5=C(c6ccc(Cl)cc6)CC(C)(C)CC5)CC4)cc3Oc3cnc4[nH]ccc4c3)cc2[N+](=O)[O-])CC1 [A-1211212] the residual activity [1] was 100%, the residual activity [2] was 87% and the residual activity [3] was 94%. For the same molecule, the residual activity [4] was 84%, the residual activity [5] was 100% and the residual activity [6] was 84%. The residual activity [7] was 78%, the residual activity [8] was 69% and the residual activity [9] was 90%. The % Inhibition of Control Specific Binding (Mean n=2) [10] was -1%, the residual activity [11] was 100% and the residual activity [12] was 99%. For the same molecule, the residual activity [13] was 100%, the residual activity [14] was 98% and the residual activity [15] was 100%. For the same molecule, the residual activity [16] was 100%, the residual activity [17] was 67% and the residual activity [18] was 75%. It also gave a residual activity [19] of 65%, a % Inhibition of Control Values (Mean n=2) [20] of 6.9% and a residual activity [21] of 100%. The residual activity [22] was 58%, the residual activity [23] was 100% and the inhibition [24] was 15.6%. The residual activity [25] was 79%, the residual activity [26] was 100% and the residual activity [27] was 78%. It also gave a residual activity [28] of 100%, a % Inhibition of Control Values (Mean n=2) [29] of -72.6% and an inhibition [30] of 8.17%. The residual activity [31] was 100%, the residual activity [32] was 50% and the residual activity [33] was 100%. For the same molecule, the residual activity [34] was 69%, the residual activity [35] was 100% and the inhibition [36] was 19%. For the same molecule, the % Inhibition of Control Specific Binding (Mean n=2) (Rattus norvegicus) was -12.6%, the % Inhibition of Control Specific Binding (Mean n=2) [37] was 10.3% and the residual activity [38] was 81%. For the same molecule, the residual activity [39] was 74%, the % Inhibition of Control Specific Binding (Mean n=2) [40] was -26.6% and the inhibition at 60 min, 10 µM (Na+ channel (site 2)) was -2.3%.
